Laboratory results published in patent US20080274892A1, “Novel Haloalkylsulfonanilide Derivative, Herbicide, and Method of Use Thereof” (priority 2005, published 2008).

Columns and labels:
bulrush [1] = test: Test Example 1: herbicidal efficacy on rice paddy weeds pre-emergence; type: in vivo, Scirpus juncoides; details: dosage 1000 g/ha, 21 days
false pimpernel [2] = test: as above; type: in vivo, Lindernia pyxidaria; details: dosage 1000 g/ha, 21 days
barnyard glass = test: Test Example 2: herbicidal efficacy on rice paddy weeds post-emergence; type: in vivo, Echinochloa crus-galli; details: dosage 1000 g/ha; post-emergence, one leaf stage; 21 days after treatment
Procedure, shortened: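 Efficacy on paddy weeds was scored on a 0 to 4 growth-inhibition scale: 4 for 90%-100%, 3 for 70%-89%, 2 for 40%-69%, 1 for 1%-39% and 0 for 0%. Barnyard glass was grown in clay loam in 75 cm^2 pots under 5 cm of water in a hot house. It was compared with untreated pots 21 days after treatment.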

bulrush [3] = test: as above; type: in vivo, Scirpus juncoides; details: dosage 1000 g/ha; post-emergence, one leaf stage; 21 days after treatment
false pimpernel [4] = test: as above; type: in vivo, Lindernia pyxidaria; details: dosage 1000 g/ha; post-emergence, one leaf stage; 21 days after treatment
[5] = system: paddy rice plant (cultivar: Nihonbare); test: Test Example 3: phytotoxicity test for transplanted paddy rice plant; type: in vivo; details: dosage 1000 g/ha; transplanted rice, treated 5 days after transplantation; 21 days after treatment
Procedure, shortened: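 Clay loam soil was placed in a 75 cm^2 plastic pot and flooded to a water depth of 5 cm. Two Nihonbare paddy rice plants at the two-leaf stage were transplanted 1 cm deep and grown in a hot house. After treatment, pots stayed in the hot house for 21 days, and phytotoxicity was then graded against an untreated control.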

bulrush [6] = test: Test Example 4: low dosage test for rice paddy weeds; type: in vivo, Scirpus juncoides; details: 300 g/ha as an active ingredient; plants treated at the one leaf stage; 21 days after treatment; vs untreated control
Procedure, shortened: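 Compound applied as a formulation at 300 g/ha to one-leaf bulrush grown in flooded clay loam (5 cm water) in a hot house. After 21 days, growth inhibition versus untreated plants rated on a 0–4 scale, with 4 meaning 90–100%.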

[7] = system: transplanted paddy rice plant and Bulrush; test: Test Example 5: selectivity between transplanted paddy rice plant and weeds; type: in vivo; details: (highest dosage with no phytotoxicity to paddy rice)/(lowest dosage with effective level 4 on Bulrush); rice 3000-100 g/ha, Bulrush 300-10 g/ha; 21 days
Procedure, shortened: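 Scoring ran 21 days after treatment in a hothouse on a 0–4 scale (4 = 90–100%, 3 = 70–89%, 2 = 40–69%, 1 = 1–39%, 0 = none) relative to untreated plants. Post-emergence bulrush received 10, 30, 100 and 300 g/ha active ingredient. Transplanted rice received 100, 300, 1000 and 3000 g/ha to assess crop injury.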

Compound | Bulrush pre (herbicidal efficacy grade) (bulrush [1]) | False pimpernel pre (herbicidal efficacy grade) (false pimpernel [2]) | Burnyard grass post (herbicidal efficacy grade) (barnyard glass) | Bulrush post (herbicidal efficacy grade) (bulrush [3]) | False pimpernel post (herbicidal efficacy grade) (false pimpernel [4]) | Phytotoxicity to paddy rice [5] | Herbicide effect to Bulrush (bulrush [6]) | Selective Index [7]
CCCOC(=O)N(c1ccccc1CN1CC(C)(C(C)C)OC1=O)S(=O)(=O)C(F)(F)F (racemic) [1-116] | 4 (90%-100% of herbicidal efficacy or phytotoxicity) | 4 (90%-100% of herbicidal efficacy or phytotoxicity) | 4 (90%-100% of herbicidal efficacy or phytotoxicity) | 4 (90%-100% of herbicidal efficacy or phytotoxicity) | 4 (90%-100% of herbicidal efficacy or phytotoxicity) | 1 (1%-39% of herbicidal efficacy or phytotoxicity) | 4 (90%-100% of herbicidal efficacy or phytotoxicity) | 10
CCC1(C(C)C)CN(Cc2ccccc2N(C(=O)OC)S(=O)(=O)C(F)(F)F)C(=O)O1 (stereo not drawn) [1-145] | 4 (90%-100% of herbicidal efficacy or phytotoxicity) | 4 (90%-100% of herbicidal efficacy or phytotoxicity) | 4 (90%-100% of herbicidal efficacy or phytotoxicity) | 4 (90%-100% of herbicidal efficacy or phytotoxicity) | 4 (90%-100% of herbicidal efficacy or phytotoxicity) | 2 (40%-69% of herbicidal efficacy or phytotoxicity) | 4 (90%-100% of herbicidal efficacy or phytotoxicity) | 10
COC(=O)N(c1ccccc1CN1CC(C)(CC(C)C)OC1=O)S(=O)(=O)C(F)(F)F (racemic) [1-124] | 4 (90%-100% of herbicidal efficacy or phytotoxicity) | 4 (90%-100% of herbicidal efficacy or phytotoxicity) | 4 (90%-100% of herbicidal efficacy or phytotoxicity) | 4 (90%-100% of herbicidal efficacy or phytotoxicity) | 4 (90%-100% of herbicidal efficacy or phytotoxicity) | 1 (1%-39% of herbicidal efficacy or phytotoxicity) | 4 (90%-100% of herbicidal efficacy or phytotoxicity) | 10
CCCCOC(=O)N(c1ccccc1CN1CC(C)(C2CC2)OC1=O)S(=O)(=O)C(F)(F)F (racemic) [1-113] | 4 (90%-100% of herbicidal efficacy or phytotoxicity) | 4 (90%-100% of herbicidal efficacy or phytotoxicity) | 4 (90%-100% of herbicidal efficacy or phytotoxicity) | 4 (90%-100% of herbicidal efficacy or phytotoxicity) | 4 (90%-100% of herbicidal efficacy or phytotoxicity) | 1 (1%-39% of herbicidal efficacy or phytotoxicity) | 4 (90%-100% of herbicidal efficacy or phytotoxicity) | 30
CCC1(CC)CN(Cc2ccccc2NS(=O)(=O)C(F)(F)F)C(=S)O1 [1-178] | 4 (90%-100% of herbicidal efficacy or phytotoxicity) | 4 (90%-100% of herbicidal efficacy or phytotoxicity) | 4 (90%-100% of herbicidal efficacy or phytotoxicity) | 4 (90%-100% of herbicidal efficacy or phytotoxicity) | 4 (90%-100% of herbicidal efficacy or phytotoxicity) | 1 (1%-39% of herbicidal efficacy or phytotoxicity) | 4 (90%-100% of herbicidal efficacy or phytotoxicity) | 10
CC[C@@H]1CN(Cc2ccccc2N(C(=O)OCC(C)C)S(=O)(=O)C(F)(F)F)C(=O)O1 [1-58] | 4 (90%-100% of herbicidal efficacy or phytotoxicity) | 4 (90%-100% of herbicidal efficacy or phytotoxicity) | 4 (90%-100% of herbicidal efficacy or phytotoxicity) | 4 (90%-100% of herbicidal efficacy or phytotoxicity) | 4 (90%-100% of herbicidal efficacy or phytotoxicity) | 1 (1%-39% of herbicidal efficacy or phytotoxicity) | 4 (90%-100% of herbicidal efficacy or phytotoxicity) | ≧30
CC(C)C1CN(Cc2ccccc2NS(=O)(=O)C(F)(F)F)C(=O)O1 (stereo not drawn) [1-31] | 4 (90%-100% of herbicidal efficacy or phytotoxicity) | 4 (90%-100% of herbicidal efficacy or phytotoxicity) | 4 (90%-100% of herbicidal efficacy or phytotoxicity) | 4 (90%-100% of herbicidal efficacy or phytotoxicity) | 4 (90%-100% of herbicidal efficacy or phytotoxicity) | 1 (1%-39% of herbicidal efficacy or phytotoxicity) | 4 (90%-100% of herbicidal efficacy or phytotoxicity) | ≧10
CC(C)C1(C)CN(Cc2ccccc2NS(=O)(=O)C(F)(F)F)C(=O)O1 (racemic) [1-101] | 4 (90%-100% of herbicidal efficacy or phytotoxicity) | 4 (90%-100% of herbicidal efficacy or phytotoxicity) | 4 (90%-100% of herbicidal efficacy or phytotoxicity) | 4 (90%-100% of herbicidal efficacy or phytotoxicity) | 4 (90%-100% of herbicidal efficacy or phytotoxicity) | 1 (1%-39% of herbicidal efficacy or phytotoxicity) | 4 (90%-100% of herbicidal efficacy or phytotoxicity) | 10
CCC1(CC)CN(Cc2ccccc2N(C(=O)OCC(C)C)S(=O)(=O)C(F)(F)F)C(=S)O1 [1-179] | 4 (90%-100% of herbicidal efficacy or phytotoxicity) | 4 (90%-100% of herbicidal efficacy or phytotoxicity) | 4 (90%-100% of herbicidal efficacy or phytotoxicity) | 4 (90%-100% of herbicidal efficacy or phytotoxicity) | 4 (90%-100% of herbicidal efficacy or phytotoxicity) | 0 (0% of herbicidal efficacy or phytotoxicity) | 4 (90%-100% of herbicidal efficacy or phytotoxicity) | 33.3
CCCOC(=O)N(c1ccccc1CN1CC(C)(C2CC2)OC1=O)S(=O)(=O)C(F)(F)F (racemic) [1-112] | 4 (90%-100% of herbicidal efficacy or phytotoxicity) | 4 (90%-100% of herbicidal efficacy or phytotoxicity) | 4 (90%-100% of herbicidal efficacy or phytotoxicity) | 4 (90%-100% of herbicidal efficacy or phytotoxicity) | 4 (90%-100% of herbicidal efficacy or phytotoxicity) | 2 (40%-69% of herbicidal efficacy or phytotoxicity) | 4 (90%-100% of herbicidal efficacy or phytotoxicity) | 30
CC(C)COC(=O)N(c1ccccc1CN1CC(C)(C)OC1=O)S(=O)(=O)C(F)(F)F [1-44] | 4 (90%-100% of herbicidal efficacy or phytotoxicity) | 4 (90%-100% of herbicidal efficacy or phytotoxicity) | 4 (90%-100% of herbicidal efficacy or phytotoxicity) | 4 (90%-100% of herbicidal efficacy or phytotoxicity) | 4 (90%-100% of herbicidal efficacy or phytotoxicity) | 2 (40%-69% of herbicidal efficacy or phytotoxicity) | 4 (90%-100% of herbicidal efficacy or phytotoxicity) | 30
COC(=O)N(c1ccccc1CN1CC2(CCCCC2)OC1=O)S(=O)(=O)C(F)(F)F [1-149] | 4 (90%-100% of herbicidal efficacy or phytotoxicity) | 4 (90%-100% of herbicidal efficacy or phytotoxicity) | 4 (90%-100% of herbicidal efficacy or phytotoxicity) | 4 (90%-100% of herbicidal efficacy or phytotoxicity) | 4 (90%-100% of herbicidal efficacy or phytotoxicity) | 2 (40%-69% of herbicidal efficacy or phytotoxicity) | 4 (90%-100% of herbicidal efficacy or phytotoxicity) | 10
